Measurements as given in US5238825A, “Preparation and use of a cyclodextrinase for preparing maltooligosaccharides” (Kikkoman Corporation, priority 1989, dated 1993).
Read-outs that look alike come from different tables or passages of the source.

Assays:
cyclodextrinase [1] = biological target: T1, cyclodextrinase (Lysinibacillus sphaericus, UniProt Q08341); assay: Substrate specificity of the present cyclodextrinase (relative hydrolysis rate); format: biochemical, Bacillus sphaericus
T1 construct: is cultured in a medium to yield and accumulate said cyclodextrinase, and this enzyme is collected from the culture; made in house; host or cells: Bacillus sphaericus E-244 (FERM BP-2458), the natural wild-type producer strain; not recombinant
T1 sequence (Q08341 1-591): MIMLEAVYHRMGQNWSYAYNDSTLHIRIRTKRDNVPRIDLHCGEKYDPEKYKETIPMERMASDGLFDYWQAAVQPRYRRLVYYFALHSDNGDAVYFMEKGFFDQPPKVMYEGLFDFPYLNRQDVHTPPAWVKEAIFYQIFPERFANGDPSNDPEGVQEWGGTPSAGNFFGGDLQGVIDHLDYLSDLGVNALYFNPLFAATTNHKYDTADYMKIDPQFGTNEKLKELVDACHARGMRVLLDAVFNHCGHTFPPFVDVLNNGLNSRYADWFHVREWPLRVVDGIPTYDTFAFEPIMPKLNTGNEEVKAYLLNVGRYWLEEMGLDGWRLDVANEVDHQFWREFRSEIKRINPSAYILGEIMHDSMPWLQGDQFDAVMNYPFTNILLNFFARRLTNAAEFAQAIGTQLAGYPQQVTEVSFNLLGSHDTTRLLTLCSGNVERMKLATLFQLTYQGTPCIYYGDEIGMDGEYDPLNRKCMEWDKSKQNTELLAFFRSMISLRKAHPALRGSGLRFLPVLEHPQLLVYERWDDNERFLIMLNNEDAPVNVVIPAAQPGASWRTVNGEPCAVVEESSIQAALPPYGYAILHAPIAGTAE
Procedure: (§1) When the amount of the enzyme was small, the reducing power of the enzyme was determined according to Nelson-Somogyi's method, with glucose as standard.

cyclodextrinase [2] = biological target: T1, cyclodextrinase; assay: Influence of metal ions on the activity of the present enzyme; format: biochemical, Bacillus sphaericus; details: for Residual activity: ions added, final conc. 1 mM, none = 100
Procedure: as §1

cyclodextrinase [3] = details: Bacillus coagulans enzyme, prior literature; cited from earlier work
cyclodextrinase [4] = biological target: T1, cyclodextrinase; assay: Reaction rate parameters of the present enzyme for cyclodextrins and maltooligosaccharides; format: biochemical, Bacillus sphaericus; design: Vmax: unit not given here; details: for Relative value: Vmax/Km relative to β-cyclodextrin = 1.00
Procedure: as §1

cyclodextrinase [5] = details: Bacillus macerans enzyme, prior literature; cited from earlier work
[6] = substrate conc. 0.1%, β-cyclodextrin (2 mM) = 100
[7] = substrate conc. 2 mM, β-cyclodextrin = 100

Compound	Residual activity (cyclodextrinase [2])	Vmax (cyclodextrinase [4])	Relative value (cyclodextrinase [4])	also measured
Amylopectin	–	–	–	Relative hydrolysis rate (cyclodextrinase [1]; [6]): 0.7%
Amylose [Amylose (G99)]	–	–	–	Relative hydrolysis rate (cyclodextrinase [1]; [6]): 3.7%
[Cu+2] [Cu^2+]	2.8%	–	–	–
[Fe+3] [Fe^3+]	41.6%	–	–	Residual activity (cyclodextrinase [2]; listed as Fe^2+): 4.6%
[Ca+2] [Ca^2+]	138.2%	–	–	activation of the enzyme by metal ion (cyclodextrinase [2]): 10-30%
Dextran	–	–	–	Relative hydrolysis rate (cyclodextrinase [1]; [6]): 11%
[Mn+2] [Mn^2+]	59.3%	–	–	–
OC[C@H]1O[C@H](O[C@H]2[C@H](O)[C@@H](O)[C@@H](O[C@H]3[C@H](O)[C@@H](O)[C@@H](O[C@H]4[C@H](O)[C@@H](O)[C@@H](O[C@H]5[C@H](O)[C@@H](O)[C@@H](O[C@H]6[C@H](O)[C@@H](O)C(O)O[C@@H]6CO)O[C@@H]5CO)O[C@@H]4CO)O[C@@H]3CO)O[C@@H]2CO)[C@H](O)[C@@H](O)[C@@H]1O (some centres unmarked) [Maltohexaose]	–	0.075	0.23	Km (cyclodextrinase [3]): 1500 µM; Relative hydrolysis rate (cyclodextrinase [1]; [7]): 43%
[Mg+2] [Mg^2+]	111.3%	–	–	activation of the enzyme by metal ion (cyclodextrinase [2]): 10-30%
OC[C@H]1O[C@H](O[C@H]2[C@H](O)[C@@H](O)[C@@H](O[C@H]3[C@H](O)[C@@H](O)[C@@H](O[C@H]4[C@H](O)[C@@H](O)[C@@H](O[C@H]5[C@H](O)[C@@H](O)C(O)O[C@@H]5CO)O[C@@H]4CO)O[C@@H]3CO)O[C@@H]2CO)[C@H](O)[C@@H](O)[C@@H]1O (some centres unmarked) [Maltopentaose]	–	0.073	0.27	Relative hydrolysis rate (cyclodextrinase [1]; [7]): 49%
[Ni+2] [Ni^2+]	0.9%	–	–	–
OC[C@H]1O[C@H](O[C@H]2[C@H](O)[C@@H](O)[C@@H](O[C@H]3[C@H](O)[C@@H](O)[C@@H](O[C@H]4[C@H](O)[C@@H](O)[C@@H](O[C@H]5[C@H](O)[C@@H](O)[C@@H](O[C@H]6[C@H](O)[C@@H](O)[C@@H](O[C@H]7[C@H](O)[C@@H](O)C(O)O[C@@H]7CO)O[C@@H]6CO)O[C@@H]5CO)O[C@@H]4CO)O[C@@H]3CO)O[C@@H]2CO)[C@H](O)[C@@H](O)[C@@H]1O (some centres unmarked) [Maltoheptaose]	–	0.060	0.30	Relative hydrolysis rate (cyclodextrinase [1]; [7]): 66%
Pullulan	–	–	–	Relative hydrolysis rate (cyclodextrinase [1]; [6]): 1.5%
OC[C@H]1O[C@@H]2O[C@H]3[C@H](O)[C@@H](O)[C@@H](O[C@H]4[C@H](O)[C@@H](O)[C@@H](O[C@H]5[C@H](O)[C@@H](O)[C@@H](O[C@H]6[C@H](O)[C@@H](O)[C@@H](O[C@H]7[C@H](O)[C@@H](O)[C@@H](O[C@H]8[C@H](O)[C@@H](O)[C@@H](O[C@H]1[C@H](O)[C@H]2O)O[C@@H]8CO)O[C@@H]7CO)O[C@@H]6CO)O[C@@H]5CO)O[C@@H]4CO)O[C@@H]3CO [β-cyclodextrin]	–	0.110	1.00	Km (cyclodextrinase [3]): 2800 µM; Relative hydrolysis rate (cyclodextrinase [1]; [7]): 100%; Km (cyclodextrinase [5]): 2650 µM
Starch	–	–	–	Relative hydrolysis rate (cyclodextrinase [1]; [6]): 2.9%
[Hg+2] [Hg^2+]	0.0%	–	–	–
OC[C@H]1O[C@@H]2O[C@H]3[C@H](O)[C@@H](O)[C@@H](O[C@H]4[C@H](O)[C@@H](O)[C@@H](O[C@H]5[C@H](O)[C@@H](O)[C@@H](O[C@H]6[C@H](O)[C@@H](O)[C@@H](O[C@H]7[C@H](O)[C@@H](O)[C@@H](O[C@H]1[C@H](O)[C@H]2O)O[C@@H]7CO)O[C@@H]6CO)O[C@@H]5CO)O[C@@H]4CO)O[C@@H]3CO [α-cyclodextrin]	–	0.074	0.36	Km (cyclodextrinase [3]): 10000 µM; Relative hydrolysis rate (cyclodextrinase [1]; [7]): 44%; Km (cyclodextrinase [5]): 2620 µM
Amylose [Amylose (G18)]	–	–	–	Relative hydrolysis rate (cyclodextrinase [1]; [6]): 44%
[Zn+2] [Zn^2+]	0.0%	–	–	–
OC[C@H]1O[C@@H]2O[C@H]3[C@H](O)[C@@H](O)[C@@H](O[C@H]4[C@H](O)[C@@H](O)[C@@H](O[C@H]5[C@H](O)[C@@H](O)[C@@H](O[C@H]6[C@H](O)[C@@H](O)[C@@H](O[C@H]7[C@H](O)[C@@H](O)[C@@H](O[C@H]8[C@H](O)[C@@H](O)[C@@H](O[C@H]9[C@H](O)[C@@H](O)[C@@H](O[C@H]1[C@H](O)[C@H]2O)O[C@@H]9CO)O[C@@H]8CO)O[C@@H]7CO)O[C@@H]6CO)O[C@@H]5CO)O[C@@H]4CO)O[C@@H]3CO [γ-cyclodextrin]	–	0.039	0.09	–
OC[C@H]1O[C@H](O[C@H]2[C@H](O)[C@@H](O)[C@@H](O[C@H]3[C@H](O)[C@@H](O)[C@@H](O[C@H]4[C@H](O)[C@@H](O)C(O)O[C@@H]4CO)O[C@@H]3CO)O[C@@H]2CO)[C@H](O)[C@@H](O)[C@@H]1O (some centres unmarked) [Maltotetraose]	–	0.067	0.15	–
